Measurements as given in patent US7220554B2, “Methods for identifying inhibitors” (priority 2003, dated 2007).
“Also recorded” adds a separate entry of the source. Non-standard residues stand in square brackets, D forms with d. Residues, ends and D or L forms follow the SMILES beside them. *: point of attachment. Nle = CCCC[C@H](N)C(=O)O; Cbz = O=C(OCc1ccccc1)*; OtBu = CC(C)(C)O*

Experiments:
[1] = tested on: Vif-dependent down modulation of APOBEC3G-Myc; experiment: Western immunoblotting of APOBEC3G-Myc in cotransfected 293T cultures that contain or lack Vif; assay type: cell-based, human; conditions: for quantity of APOBEC3G-Myc in the cultures that contained Vif: incubated 10 hours, FIG. 11A
Excerpt: (§1) Expression vectors: pHIV-gpt(wt) and its derivative pHIV-gpt(Δvif) were previously described (Madani & Kabat, J. Virol. 72, 10251–10255, 1998; Page et al., J Virol 64, 5270–5276, 1990; Madani & Kabat, J. Virol. 74, 5982–5987, 2000). pcDNA3.1-Vif was donated by D. Gabuzda (Dana-Farber Cancer Institute, Harvard, Boston, Mass.). Rev-dependent plasmids for expression of the Vif mutants Δ2, Δ5, Δ6, Δ7, Δ9, Δ10, Δ12 and Δ13 (Simon et al., J. Virol. 73, 2675–2681, 1999) were provided by M. Malim (Medical Research Council, Cambridge, UK) and were coexpressed with pHIV-gpt(Δvif). APOBEC3G cDNA was cloned from H9 cells (nonpermissive) by reverse transcriptase-PCR (Barnes, Proc. Natl. Acad. Sci. USA 91, 2216–2220, 1994; Sambrook et al., Molecular Cloning. A Laboratory Manual, Chapter 14, 14.5–14.34., CSHL Press, Cold Spring Harbor, 1989) using primers complementary to the 5′ and 3′ ends of APOBEC3G coding region (Sheehy et al., Nature 418, 646–650, 2002) (upstream primer, 5′-[…]-3′ (SEQ ID NO: 15) containing an XhoI restriction site [underlined]; downstream primer, 5′-[…]-3′ (SEQ ID NO: 16) containing a SfuI restriction site [underlined]). The cDNA was cloned between XhoI and SfuI into the pcDNA3.1/Myc-His C mammalian expression vector (Invitrogen) to obtain the pcDNA3.1-APOBEC3G-Myc vector. The pSVIIIEnv vector was used to pseudotype HIV-gpt virions (Helseth et al., J. Virol. 64, 2416–2420, 1990). Transfections employed PolyFect reagent (Qiagen, Inc.) according to the manufacturer's instructions, with equimolar ratios of all plasmids and with harvests after 36 hours unless otherwise mentioned. Viruses: HIV-gpt virions were produced and titered as previously described (Page et al., J Virol 64, 5270–5276, 1990; Page et al., J Virol 66, 524–533, 1992; Platt et al., J. Virol. 75, 12266–12278, 2001). For viral purifications, 27 ml of the virus-containing media from 293T cells were pelleted through 2 ml of a 20% sucrose at 100,000 g for 1.5 hours. Virions were resuspended in TSE (0.1 M NaCl, 1 mM EDTA, 0.01M Tris-Cl, pH 7.4), and centrifuged to equilibrium in 5 ml 20–60% sucrose gradients in TSE at 200,000 g for 2.5 hours. Virus-containing fractions were detected by immunoblotting using HIV Immunoglobulin serum (AIDS Research & Reference Reagent Program, Division of AIDS, NIAID, NIH: contributed by NABI and NHLBI). Peak fractions were pooled, diluted with TSE, and pelleted through 20% sucrose at 100,000 g for two hours. Analysis of proteins and RNAs: Extracts of cotransfected 293T and COS7 cultures were prepared using either TX (1% Triton X-100, 150 mM NaCl, 10 mM Tris-Cl, pH 7.5, 1 mM MgCl) or RIPA (50 mM Tris-Ci pH 7.4, 1% Nonidet P40, 0.1% sodium deoxycholate, 150 mM NaCl) buffers with complete protease inhibitors (Roche), followed by centrifugation at 1,500 g for 5 minutes to sediment nuclei. Extracts were adjusted to equivalent protein concentrations using the Bradford reagent (BioRad Laboratories), and equal aliquots were then used for Western immunoblotting (Marin et al., J. Virol. 74, 8085–8093, 2000) or for immunoprecipitations (Klippel et al., Mol. Cell. Biol. 14, 2675–2685, 1994) using the antibodies HIV-1 HXB2 Vif rabbit antiserum #2221, (AIDS Research and Reference Reagent Program, Division of AIDS, NIAID, NIH: contributed by Dr. D. Gabuzda), Myc-specific monoclonal antibody clone 9E10 (Sigma) (Marin et al., J. Virol. 74, 8085–8093, 2000), or the ubiquitin-specific mouse monoclonal antibody (Zymed). […] Where indicated, cultures were preincubated with 50 μM concentrations of the proteasome inhibitors ALLN, MG-132, or Proteasome Inhibitor-I (Calbiochem).

[2] = tested on: total cellular polyubiquitinated proteins; experiment: Western blot of total cell culture extracts with ubiquitin-specific antibody; assay type: cell-based, human; conditions: 293T; for amounts of total polyubiquitinated proteins (inhibitor activity in cultures with and without Vif): 50 μM inhibitor; for quantities of total cellular polyubiquitinated proteins (inhibitor activity in both cultures): preincubated 6 hours, FIG. 9B
Excerpt: as §1

APOBEC3G-Myc = experiment: Immunofluorescence microscopy of Vif and APOBEC3G-Myc in cotransfected COS7 cells; assay type: cell-based, African green monkey; conditions: ALLN in DMSO, FIG. 5B
Protocol: For immunofluorescence, COS7 cells were used because they are more adherent than 293T cells. Cells cultured in Permanox chamber slides (Nalge Nunc International) were fixed in 5% formaldehyde and 2% sucrose in PBS (Invitrogen) at room temperature for 20 minutes, and permeabilized with 1% Triton X-100 in PBS with 10% sucrose for 30 minutes. Primary antibodies were Vif antiserum #2221 or the Myc-specific monoclonal antibody 9E10. Secondary fluorescent antibodies were Alexa Fluor 488 goat anti-rabbit IgG(H+L) and Alexa Fluor 594 goat anti-mouse IgG (H+L) (Molecular Probes Inc), which reacted only with their species-specific primary antibodies. Slides were mounted in FluoroGuard (BioRad Laboratories), and observed with a Zeiss Axiovert 200M deconvolution microscope. The percentage of double-positive cells in FIG. 5B is defined as the percentage of the Vif-positive cells and that contained APOBEC3G-Myc. RNA extraction and Northern blot analyses were previously described (Tailor et al., Proc. Natl. Acad. Sci. USA 96, 927–932, 1999). A cDNA probe for the S2 ribosomal protein was used as a loading control.

[3] = tested on: polyubiquitinated APOBEC3G; experiment: Ni-NTA purification of APOBEC3G-Myc in 8M urea and immunoblotting with ubiquitin-specific antibody; assay type: cell-based, human; conditions: 293T; ALLN 10 hours; FIG. 11B
Excerpt: Expression vectors: pHIV-gpt(wt) and its derivative pHIV-gpt(Δvif) were previously described (Madani & Kabat, J. Virol. 72, 10251–10255, 1998; Page et al., J Virol 64, 5270–5276, 1990; Madani & Kabat, J. Virol. 74, 5982–5987, 2000). pcDNA3.1-Vif was donated by D. Gabuzda (Dana-Farber Cancer Institute, Harvard, Boston, Mass.). Rev-dependent plasmids for expression of the Vif mutants Δ2, Δ5, Δ6, Δ7, Δ9, Δ10, Δ12 and Δ13 (Simon et al., J. Virol. 73, 2675–2681, 1999) were provided by M. Malim (Medical Research Council, Cambridge, UK) and were coexpressed with pHIV-gpt(Δvif). APOBEC3G cDNA was cloned from H9 cells (nonpermissive) by reverse transcriptase-PCR (Barnes, Proc. Natl. Acad. Sci. USA 91, 2216–2220, 1994; Sambrook et al., Molecular Cloning. A Laboratory Manual, Chapter 14, 14.5–14.34., CSHL Press, Cold Spring Harbor, 1989) using primers complementary to the 5′ and 3′ ends of APOBEC3G coding region (Sheehy et al., Nature 418, 646–650, 2002) (upstream primer, 5′-[…]-3′ (SEQ ID NO: 15) containing an XhoI restriction site [underlined]; downstream primer, 5′-[…]-3′ (SEQ ID NO: 16) containing a SfuI restriction site [underlined]). […] Virus-containing fractions were detected by immunoblotting using HIV Immunoglobulin serum (AIDS Research & Reference Reagent Program, Division of AIDS, NIAID, NIH: contributed by NABI and NHLBI). […]

[4] = tested on: Vif-mediated elimination of YFP-APOBEC3G; experiment: Fluorescence of YFP-APOBEC3G in 293T cultures cotransfected with Vif; assay type: cell-based, human; conditions: ALLN for eight hours
Excerpt: Using methods essentially similar to those described in Example 1, a vector was constructed that encodes a chimeric protein containing the yellow fluorescent protein (YFP) at the amino terminus and APOBEC3G at the carboxyl terminus (YFP-APOBEC3G; SEQ ID NOs: 3 and 4). Cotransfection of plasmids that encode this chimera and Vif into human 293T cell cultures results in only a few fluorescent cells, consistent with a Vif-induced degradation (FIG. 13A, top two panels). In contrast, cotransfection with a vector lacking Vif results in a much larger fraction of fluorescent cells.

Q: With `CCCC[C@@H](C=O)NC(=O)[C@H](CC(C)C)NC(=O)[C@H](CC(C)C)NC(C)=O` [ALLN] (Ac-Leu-Leu-[Nle]-aldehyde) as the compound, how does the “control protein α-tubulin” value ([1]; 50 μM inhibitor, 6–10 hour) read?
A: no effect

Q: What about the “quantities of APOBEC3G-Myc in the cultures that contained Vif” value ([1]; 50 μM inhibitor, 6–10 hour) of the same compound?
A: increased the quantities of APOBEC3G-Myc

Q: And the “quantities of APOBEC3G-Myc in the cultures that lacked Vif” value ([1]; 50 μM inhibitor, 6–10 hour)?
A: not in the cultures that lacked Vif

Q: What about the “quantity of APOBEC3G-Myc in the cultures that contained Vif” value (“quantity of APOBEC3G-Myc” for short) [1] of the same compound?
A: increased the quantity of APOBEC3G-Myc

Q: And the “quantities of APOBEC3G-Myc in the cultures that contained Vif” value ([1]; preincubated 6 hours, FIG. 9B)?
A: increased the quantities of APOBEC3G-Myc

Q: And the “quantities of APOBEC3G-Myc in the cultures that lacked Vif” value ([1]; preincubated 6 hours, FIG. 9B)?
A: not in the cultures that lacked Vif

Q: What about the “amounts of total polyubiquitinated proteins (inhibitor activity in cultures with and without Vif)” value [2] of the same compound?
A: active in both cultures

Q: And the “quantities of total cellular polyubiquitinated proteins (inhibitor activity in both cultures)” value [2]?
A: active in both cultures

Q: What about the “percentage of cells that coexpressed wild-type Vif and APOBEC3G-Myc” value (APOBEC3G-Myc) of the same compound?
A: dramatic increase in coexpression; also recorded: this decrease was alleviated by ALLN

Q: And the “amount of polyubiquitinated APOBEC3G-Myc, effect of proteasome inhibitor” value [3]?
A: substantially increased; also recorded: greatly increased

Q: And the “cells with YFP-APOBEC3G fluorescence in the culture that contains Vif” value [4]?
A: reverses the Vif-dependent elimination of the chimeric protein; also recorded: blocks Vif-mediated elimination of YFP-APOBEC3G; also recorded: accumulate in many more cells

Q: For `CC(C)C[C@@H](C=O)NC(=O)[C@H](CC(C)C)NC(=O)[C@H](CC(C)C)NC(=O)OCc1ccccc1` [MG-132] (Cbz-Leu-Leu-Leu-aldehyde), which “control protein α-tubulin” value ([1]; 50 μM inhibitor, 6–10 hour) is on record?
A: no effect

Q: What about the “quantities of APOBEC3G-Myc in the cultures that contained Vif” value ([1]; 50 μM inhibitor, 6–10 hour) of the same compound?
A: increased the quantities of APOBEC3G-Myc

Q: What about the “quantities of APOBEC3G-Myc in the cultures that lacked Vif” value ([1]; 50 μM inhibitor, 6–10 hour) of the same compound?
A: not in the cultures that lacked Vif

Q: What about the “quantity of APOBEC3G-Myc” value [1] of the same compound?
A: increased the quantity of APOBEC3G-Myc

Q: And the “quantities of APOBEC3G-Myc in the cultures that contained Vif” value ([1]; preincubated 6 hours, FIG. 9B)?
A: increased the quantities of APOBEC3G-Myc

Q: What about the “quantities of APOBEC3G-Myc in the cultures that lacked Vif” value ([1]; preincubated 6 hours, FIG. 9B) of the same compound?
A: not in the cultures that lacked Vif

Q: What about the “amounts of total polyubiquitinated proteins (inhibitor activity in cultures with and without Vif)” value [2] of the same compound?
A: active in both cultures

Q: What about the “quantities of total cellular polyubiquitinated proteins (inhibitor activity in both cultures)” value [2] of the same compound?
A: active in both cultures

Q: With `CC[C@H](C)[C@H](NC(=O)OCc1ccccc1)C(=O)N[C@@H](CCC(=O)OC(C)(C)C)C(=O)N[C@@H](C)C(=O)N[C@H](C=O)CC(C)C` [Proteasome Inhibitor-I] (Cbz-IE(OtBu)AL-aldehyde) as the compound, how does the “control protein α-tubulin” value ([1]; 50 μM inhibitor, 6–10 hour) read?
A: no effect

Q: What about the “quantities of APOBEC3G-Myc in the cultures that contained Vif” value ([1]; 50 μM inhibitor, 6–10 hour) of the same compound?
A: increased the quantities of APOBEC3G-Myc

Q: And the “quantities of APOBEC3G-Myc in the cultures that lacked Vif” value ([1]; 50 μM inhibitor, 6–10 hour)?
A: not in the cultures that lacked Vif

Q: And the “quantity of APOBEC3G-Myc” value [1]?
A: increased the quantity of APOBEC3G-Myc

Q: And the “quantities of APOBEC3G-Myc in the cultures that contained Vif” value ([1]; preincubated 6 hours, FIG. 9B)?
A: increased the quantities of APOBEC3G-Myc

Q: And the “quantities of APOBEC3G-Myc in the cultures that lacked Vif” value ([1]; preincubated 6 hours, FIG. 9B)?
A: not in the cultures that lacked Vif

Q: And the “amounts of total polyubiquitinated proteins (inhibitor activity in cultures with and without Vif)” value [2]?
A: active in both cultures

Q: What about the “quantities of total cellular polyubiquitinated proteins (inhibitor activity in both cultures)” value [2] of the same compound?
A: active in both cultures
